Assay results reported in patent US20240158446A1, “CYCLIC COMPOUND HAVING SELECTIVE INHIBITORY ACTION ON KRAS OVER HRAS AND NRAS” (CHUGAI SEIYAKU KABUSHIKI KAISHA, priority 2021, published 2024).
*1 amine or outer side, *2 acyl side, *3 side chain or, on linkers, in order; H or OH if unused. Where a SMILES comes first, the peptide text is derived from it. Bridges are numbered along the chain shown (N, C = ends). [ ]: non-standard residue; d: D form. The star is where a group is joined. hPhe(3-Cl-4-CF3) = N[C@@H](CCc1ccc(C(F)(F)F)c(Cl)c1)C(=O)O; NPrPhe(4-CF3) = CCCN[C@@H](Cc1ccc(C(F)(F)F)cc1)C(=O)O; X4 = CCCN([C@@H](CC(C)C)C(=O)[*:2])[*:1]; NMeGly(cPent) = CN[C@H](C(=O)O)C1CCCC1; NMeNva(3-Et) = CCC(CC)[C@H](NC)C(=O)O; NMeD = CN[C@@H](CC(=O)O)C(=O)O; NMeL = CN[C@@H](CC(C)C)C(=O)O; Morpholide = C1CN(*)CCO1; Ac4c = NC1(C(=O)O)CCC1; Sar = CNCC(=O)O

Columns and labels:
[1] = target: GDP-bound NRAS wild-type protein (Homo sapiens, UniProt P01111); test: Binding to NRAS by surface plasmon resonance (SPR), Single Cycle Kinetics; settings: ratio of KD for GDP-bound NRAS wild-type protein to KD for KRAS, SPR
Sequence of GDP-bound NRAS wild-type protein (P01111 whole entry): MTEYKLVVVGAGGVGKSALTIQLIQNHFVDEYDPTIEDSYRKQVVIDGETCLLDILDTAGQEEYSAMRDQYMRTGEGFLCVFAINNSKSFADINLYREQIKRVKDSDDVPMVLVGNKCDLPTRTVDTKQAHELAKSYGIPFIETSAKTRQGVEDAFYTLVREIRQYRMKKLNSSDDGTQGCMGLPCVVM

[2] = test system: human lung cancer strain NCI-H441; test: cells; settings: NCI-H441, 96 h, read-out: NCI-H441 IC50 (nM), NCI-H441 cell proliferation, 4 days, CellTiter-Glo;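 note: cell proliferation inhibition after four days measured by CellTiter-Glo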
[3] = target: GDP-bound KRAS wild-type protein (Homo sapiens, UniProt P01116); test: Binding to KRAS by surface plasmon resonance (SPR), Single Cycle Kinetics; settings: SPR, Single Cycle Kinetics, GDP-bound KRAS wild-type protein; read-out: KRAS KD
Sequence of GDP-bound KRAS wild-type protein (P01116 whole entry): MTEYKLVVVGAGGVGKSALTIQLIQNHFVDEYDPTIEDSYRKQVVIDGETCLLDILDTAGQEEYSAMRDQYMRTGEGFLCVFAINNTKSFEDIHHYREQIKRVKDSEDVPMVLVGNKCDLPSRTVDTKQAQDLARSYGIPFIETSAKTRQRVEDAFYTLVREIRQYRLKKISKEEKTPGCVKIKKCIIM

[4] = target: GDP-bound HRAS wild-type protein (Homo sapiens, UniProt P01112); test: Binding to HRAS by surface plasmon resonance (SPR), Single Cycle Kinetics; settings: ratio of KD for GDP-bound HRAS wild-type protein to KD for KRAS, SPR
Sequence of GDP-bound HRAS wild-type protein (P01112 whole entry): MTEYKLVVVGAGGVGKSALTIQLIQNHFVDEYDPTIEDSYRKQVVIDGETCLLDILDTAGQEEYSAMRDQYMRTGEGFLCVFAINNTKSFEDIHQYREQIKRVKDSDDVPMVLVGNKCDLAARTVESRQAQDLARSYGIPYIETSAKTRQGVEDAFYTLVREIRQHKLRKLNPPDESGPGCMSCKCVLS

## CCO[C@@H]1C[C@H]2C(=O)NC3(CC(C)(C)C3)C(=O)N(C)[C@@H](C3CCCC3)C(=O)N(C)[C@H](C(=O)N(C)C)CC(=O)N(C)[C@@H](CC)C(=O)N[C@@H]([C@@H](C)CC)C(=O)N(C)CC(=O)N(C)[C@H]3C/C=C\CCN(C3=O)[C@@H](Cc3ccc(C)cc3)C(=O)N(C)CC(=O)N[C@@H](CCc3ccc(C(F)(F)F)c(OC)c3)C(=O)N2C1 [PP1873]
[1]
  NRAS/KRAS (KD ratio): A (a compound having 10 or more and less than 20 is denoted as A)
[2]
  IC50: 8.5 nM
[3]
  Kd: 0.075 nM
[4]
  HRAS/KRAS (KD ratio): B (a compound having 3 or more and less than 10 is denoted as B)

## CC[C@H](C)[C@@H]1NC(=O)[C@H](CC(F)(F)F)N(C)C(=O)C[C@@H](C(=O)N(C)C)N(C)C(=O)[C@H](C2CCCC2)N(C)C(=O)C2(CC(C)(C)C2)NC(=O)[C@@H]2CC(F)(F)CN2C(=O)[C@H](CCc2cc(F)c(C(F)(F)F)c(F)c2)NC(=O)CN(C)C(=O)[C@H](Cc2ccc(C(F)(F)F)cc2)N2CC/C=C\C[C@@H](C2=O)N(C)C(=O)CN(C)C1=O [PP1710]
[1]
  NRAS/KRAS (KD ratio): A (a compound having 10 or more and less than 20 is denoted as A)
[2]
  IC50: 4.1 nM
[3]
  Kd: 0.1 nM
[4]
  HRAS/KRAS (KD ratio): B (a compound having 3 or more and less than 10 is denoted as B)

## CCOC[C@H]1C(=O)N[C@@H]([C@@H](C)CC)C(=O)N(C)CC(=O)N(C)[C@H]2C/C=C\CCN(C2=O)[C@@H](Cc2ccc(C(F)(F)F)cc2)C(=O)N(C)CC(=O)N[C@@H](CCc2ccc(C(F)(F)F)c(OC)c2)C(=O)N2C[C@@H](C)C[C@H]2C(=O)NC2(CCC2)C(=O)N(C)[C@@H](C2CCCC2)C(=O)N(C)[C@H](C(=O)N(C)CC)CC(=O)N1C [PP2026]
[1]
  NRAS/KRAS (KD ratio): A (a compound having 10 or more and less than 20 is denoted as A)
[2]
  IC50: 22.6 nM
[3]
  Kd: 0.089 nM
[4]
  HRAS/KRAS (KD ratio): A (a compound having 10 or more and less than 20 is denoted as A)

## CCCOC[C@H]1C(=O)N[C@@H]([C@@H](C)CC)C(=O)N(C)CC(=O)N(C)[C@H]2C/C=C\CCN(C2=O)[C@@H](Cc2ccc(C(F)(F)F)cc2)C(=O)N(C)CC(=O)N[C@@H](CCc2ccc(C(F)(F)F)c(OC)c2)C(=O)N2C[C@H](OCC)C[C@H]2C(=O)NC2(CCC2)C(=O)N(C)[C@@H](C2CCCC2)C(=O)N(C)[C@H](C(=O)N(C)CC)CC(=O)N1C [PP2016]
[1]
  NRAS/KRAS (KD ratio): A (a compound having 10 or more and less than 20 is denoted as A)
[2]
  IC50: 8.2 nM
[3]
  Kd: 0.11 nM
[4]
  HRAS/KRAS (KD ratio): A (a compound having 10 or more and less than 20 is denoted as A)

## CCCN1C(=O)C[C@@H](C(=O)N2CCOCC2)N(C)C(=O)[C@H](C2CCCC2)N(C)C(=O)C2(CCC2)NC(=O)[C@@H]2CCCN2C(=O)[C@H](CCc2ccc(C(F)(F)F)c(Cl)c2)NC(=O)CN(C)C(=O)[C@H](Cc2ccc(C(F)(F)F)cc2)N(CCC)C(=O)CN(C)C(=O)CN(C)C(=O)[C@H](C(C)C)NC(=O)[C@@H]1CC(C)C [PP1815] ([X4]V[Sar][Sar][NPrPhe(4-CF3)][Sar][hPhe(3-Cl-4-CF3)]P[Ac4c][NMeGly(cPent)][NMeD]-Morpholide; lactam N-11)
[1]
  NRAS/KRAS (KD ratio): B (a compound having 3 or more and less than 10 is denoted as B)
[2]
  IC50: 83 nM
[3]
  Kd: 0.34 nM
[4]
  HRAS/KRAS (KD ratio): B (a compound having 3 or more and less than 10 is denoted as B)

## C#CC[C@H]1C(=O)N[C@@H]([C@@H](C)CC)C(=O)N(C)CC(=O)N(C)[C@H]2C/C=C\CCN(C2=O)[C@@H](Cc2ccc(C(F)(F)F)cc2)C(=O)N(C)CC(=O)N[C@@H](CCc2ccc(C(F)(F)F)c(OC)c2)C(=O)N2C[C@H](OCC)C[C@H]2C(=O)NC2(CC(C)(C)C2)C(=O)N(C)[C@@H](C2CCCC2)C(=O)N(C)[C@H](C(=O)N(C)C)CC(=O)N1C [PP1677]
[1]
  NRAS/KRAS (KD ratio): A (a compound having 10 or more and less than 20 is denoted as A)
[2]
  IC50: 3.4 nM
[3]
  Kd: 0.042 nM
[4]
  HRAS/KRAS (KD ratio): A (a compound having 10 or more and less than 20 is denoted as A)

## C#CC[C@H]1C(=O)N[C@@H]([C@@H](C)CC)C(=O)N(C)CC(=O)N(C)[C@H]2C/C=C\CCN(C2=O)[C@@H](Cc2ccc(C(F)(F)F)cc2)C(=O)N(C)CC(=O)N[C@@H](CCc2cc(F)c(C(F)(F)F)c(F)c2)C(=O)N2C[C@H](OCC)C[C@H]2C(=O)NC2(CCC2)C(=O)N(C)[C@@H](C2CCCC2)C(=O)N(C)[C@H](C(=O)N(C)CCC)CC(=O)N1C [PP1703]
[1]
  NRAS/KRAS (KD ratio): A (a compound having 10 or more and less than 20 is denoted as A)
[2]
  IC50: 7.2 nM
[3]
  Kd: 0.13 nM
[4]
  HRAS/KRAS (KD ratio): A (a compound having 10 or more and less than 20 is denoted as A)

## CC[C@H](C)[C@@H]1NC(=O)[C@H](CC(C)C)N(C)C(=O)C[C@@H](C(=O)N(C)C)N(C)C(=O)[C@H](C2CCCC2)N(C)C(=O)C2(CC(C)(C)C2)NC(=O)CN(C)C(=O)[C@H](CCc2cc(F)c(C(F)(F)F)c(F)c2)NC(=O)CN(C)C(=O)[C@H](Cc2ccc(C(F)(F)F)cc2)N2CC/C=C\C[C@@H](C2=O)N(C)C(=O)CN(C)C1=O [PP1776]
[1]
  NRAS/KRAS (KD ratio): A (a compound having 10 or more and less than 20 is denoted as A)
[2]
  IC50: 98.7 nM
[3]
  Kd: 0.54 nM
[4]
  HRAS/KRAS (KD ratio): A (a compound having 10 or more and less than 20 is denoted as A)

## CCCN(C)C(=O)[C@@H]1CC(=O)N(C)[C@@H](CC)C(=O)N[C@@H]([C@@H](C)CC)C(=O)N(C)CC(=O)N(C)[C@H]2C/C=C\CCN(C2=O)[C@@H](Cc2ccc(C(F)(F)F)cc2)C(=O)N(C)CC(=O)N[C@@H](CCc2cc(F)c(C(F)(F)F)c(F)c2)C(=O)N2C[C@H](OCC)C[C@H]2C(=O)NC2(CC(F)(F)C2)C(=O)N(C)[C@@H](C2CCCC2)C(=O)N1C [PP1732]
[1]
  NRAS/KRAS (KD ratio): AA (a compound having 20 or more is denoted as AA)
[2]
  IC50: 6.4 nM
[3]
  Kd: 0.099 nM
[4]
  HRAS/KRAS (KD ratio): A (a compound having 10 or more and less than 20 is denoted as A)

## CCO[C@@H]1C[C@H]2C(=O)NC3(CC(C)(C)C3)C(=O)N(C)[C@@H](C3CCCC3)C(=O)N(C)[C@H](C(=O)N(C)CC)CC(=O)N(C)[C@@H](CC)C(=O)N[C@@H]([C@@H](C)CC)C(=O)N(C)CC(=O)N(C)[C@H]3C/C=C\CCN(C3=O)[C@@H](Cc3ccc(C)cc3)C(=O)N(C)CC(=O)N[C@@H](CCc3ccc(C(F)(F)F)c(OC)c3)C(=O)N2C1 [PP1872]
[1]
  NRAS/KRAS (KD ratio): A (a compound having 10 or more and less than 20 is denoted as A)
[2]
  IC50: 12.4 nM
[3]
  Kd: 0.12 nM
[4]
  HRAS/KRAS (KD ratio): A (a compound having 10 or more and less than 20 is denoted as A)

## CC[C@H](C)[C@@H]1NC(=O)[C@H](C2CC2)N(C)C(=O)C[C@@H](C(=O)N(C)CC)N(C)C(=O)[C@H](C2CCCC2)N(C)C(=O)C2(CC(C)(C)C2)NC(=O)[C@@H]2C[C@H](C)CN2C(=O)[C@H](CCc2ccc(C(F)(F)F)c(OC)c2)NC(=O)CN(C)C(=O)[C@H](Cc2ccc(C(F)(F)F)cc2)N2CC/C=C\C[C@@H](C2=O)N(C)C(=O)CN(C)C1=O [PP2007]
[1]
  NRAS/KRAS (KD ratio): AA (a compound having 20 or more is denoted as AA)
[2]
  IC50: 14.9 nM
[3]
  Kd: 0.14 nM
[4]
  HRAS/KRAS (KD ratio): B (a compound having 3 or more and less than 10 is denoted as B)

## CCO[C@@H]1C[C@H]2C(=O)NC3(CC(C)(C)C3)C(=O)N(C)[C@@H](C3CCCC3)C(=O)N(C)[C@H](C(=O)N(C)C)CC(=O)N(C)[C@@H](CC(F)F)C(=O)N[C@@H]([C@@H](C)CC)C(=O)N(C)CC(=O)N(C)[C@H]3C/C=C\CCN(C3=O)[C@@H](Cc3ccc(C(F)(F)F)cc3)C(=O)N(C)CC(=O)N[C@@H](CCc3ccc(C(F)(F)F)c(Cl)c3)C(=O)N2C1 [PP1747]
[1]
  NRAS/KRAS (KD ratio): A (a compound having 10 or more and less than 20 is denoted as A)
[2]
  IC50: 2.3 nM
[3]
  Kd: 0.058 nM
[4]
  HRAS/KRAS (KD ratio): A (a compound having 10 or more and less than 20 is denoted as A)

## CCC[C@H]1C(=O)N[C@@H]([C@@H](C)CC)C(=O)N(C)CC(=O)N(C)[C@H]2C/C=C\CCN(C2=O)[C@@H](Cc2ccc(C(F)(F)F)cc2)C(=O)N(C)CC(=O)N[C@@H](CCc2cc(F)c(C(F)(F)F)c(F)c2)C(=O)N2C[C@H](OCC)C[C@H]2C(=O)NC2(CC(C)(C)C2)C(=O)N(C)[C@@H](C2CCCC2)C(=O)N(C)[C@H](C(=O)N(C)C)CC(=O)N1C [PP1645]
[1]
  NRAS/KRAS (KD ratio): A (a compound having 10 or more and less than 20 is denoted as A)
[2]
  IC50: 1.8 nM
[3]
  Kd: 0.04 nM
[4]
  HRAS/KRAS (KD ratio): A (a compound having 10 or more and less than 20 is denoted as A)

## CCO[C@@H]1C[C@H]2C(=O)NC3(CCC3)C(=O)N(C)[C@@H](C3CCCC3)C(=O)N3CCC[C@@H]3CC(=O)N(C)[C@@H](CC3CC3)C(=O)N[C@@H]([C@@H](C)CC)C(=O)N(C)CC(=O)N(C)[C@H]3C/C=C\CCN(C3=O)[C@@H](Cc3ccc(C(F)(F)F)cc3)C(=O)N(C)CC(=O)N[C@@H](CCc3cc(F)c(C(F)(F)F)c(F)c3)C(=O)N2C1 [PP1613]
[1]
  NRAS/KRAS (KD ratio): B (a compound having 3 or more and less than 10 is denoted as B)
[2]
  IC50: 14.7 nM
[3]
  Kd: 0.15 nM
[4]
  HRAS/KRAS (KD ratio): B (a compound having 3 or more and less than 10 is denoted as B)

## CCCN1C(=O)CN(C)C(=O)CN(C)C(=O)[C@H]([C@@H](C)CC)NC(=O)[C@H](CC(C)C)N(C)C(=O)C[C@@H](C(=O)N2CCOCC2)N(C)C(=O)[C@H](C(CC)CC)N(C)C(=O)C2(CCC2)NC(=O)[C@@H]2CCCN2C(=O)[C@H](CCc2ccc(C(F)(F)F)c(Cl)c2)NC(=O)CN(C)C(=O)[C@@H]1Cc1ccc(C(F)(F)F)cc1 [PP1958] ([NMeL]I[Sar][Sar][NPrPhe(4-CF3)][Sar][hPhe(3-Cl-4-CF3)]P[Ac4c][NMeNva(3-Et)][NMeD]-Morpholide; lactam N-11)
[1]
  NRAS/KRAS (KD ratio): B (a compound having 3 or more and less than 10 is denoted as B)
[2]
  IC50: 57.8 nM
[3]
  Kd: 0.53 nM
[4]
  HRAS/KRAS (KD ratio): B (a compound having 3 or more and less than 10 is denoted as B)
